Measurements taken from PubChem BioAssay AID248 (DTP/NCI, 2004).
Several values for one entry are separate records, joined by “and”; a condition that tells them apart may be missing. Equal entries are not always repeated. Inconclusive results and toxic doses are left out. Rule as the data show it: active = T/C of 150% or more; inactive = T/C below 125%.

Test system: L1210 leukemia ip in BDF1 mice, survival T/C
Test: NCI In Vivo Anticancer Drug Screen. Data for tumor model L1210 Leukemia (intraperitoneal) in B6D2F1 (BDF1) mice
Conditions: endpoint: mean survival time, higher = longer survival
How it was run: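 In this screen, tumor-bearing mice given compound are compared to those given vehicle, and their survival values are reported as a treated-to-control quotient.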

[1] = dose: 100.0 mg/kg/injection, schedule: Q01DX001 (ip), vehicle: saline
[2] = dose: 100.0 mg/kg/injection, schedule: Q04DX003 (ip), vehicle: Klucel (hydroxypropylcellulose) (HPC)
[3] = dose: 200.0 mg/kg/injection, schedule: Q01DX001 (ip), vehicle: saline
[4] = dose: 400.0 mg/kg/injection, schedule: Q01DX001 (ip), vehicle: saline
[5] = dose: 100.0 mg/kg/injection, schedule: Q04DX002 (ip), vehicle: Klucel (hydroxypropylcellulose) (HPC)
[6] = dose: 200.0 mg/kg/injection, schedule: Q04DX002 (ip), vehicle: Klucel (hydroxypropylcellulose) (HPC)
[7] = dose: 100.0 mg/kg/injection, schedule: Q04DX003 (ip), vehicle: saline with Tween-80
[8] = dose: 200.0 mg/kg/injection, schedule: Q04DX003 (ip), vehicle: saline with Tween-80
[9] = dose: 400.0 mg/kg/injection, schedule: Q04DX003 (ip), vehicle: saline with Tween-80
[10] = dose: 4.0 mg/kg/injection, schedule: Q01DX009 (ip), vehicle: saline
[11] = dose: 100.0 mg/kg/injection, schedule: Q01DX009 (ip), vehicle: saline
[12] = dose: 100.0 mg/kg/injection, schedule: Q01DX009 (ip), vehicle: Klucel (hydroxypropylcellulose) (HPC)
[13] = dose: 200.0 mg/kg/injection, schedule: Q01DX009 (ip), vehicle: Klucel (hydroxypropylcellulose) (HPC)
[14] = dose: 200.0 mg/kg/injection, schedule: Q04DX003 (ip), vehicle: Klucel (hydroxypropylcellulose) (HPC)

Measured: T/C

NN=C(c1ccccc1)c1ccccc1
inactive: dose: 1.3 mg/kg/injection, schedule: Q01DX009 (ip), vehicle: Klucel (hydroxypropylcellulose) (HPC) 103 % of control | dose: 2.61 mg/kg/injection, schedule: Q01DX009 (ip), vehicle: Klucel (hydroxypropylcellulose) (HPC) 94 % of control | dose: 5.23 mg/kg/injection, schedule: Q01DX009 (ip), vehicle: Klucel (hydroxypropylcellulose) (HPC) 94 % of control | dose: 10.46 mg/kg/injection, schedule: Q01DX009 (ip), vehicle: Klucel (hydroxypropylcellulose) (HPC) 86 % of control | dose: 25.0 mg/kg/injection, schedule: Q04DX003 (ip), vehicle: Klucel (hydroxypropylcellulose) (HPC) 97 % of control | dose: 41.87 mg/kg/injection, schedule: Q01DX009 (ip), vehicle: Klucel (hydroxypropylcellulose) (HPC) 91 % of control | dose: 50.0 mg/kg/injection, schedule: Q01DX001 (ip), vehicle: saline 96 % of control | dose: 50.0 mg/kg/injection, schedule: Q04DX003 (ip), vehicle: Klucel (hydroxypropylcellulose) (HPC) 92 % of control | dose: 83.7 mg/kg/injection, schedule: Q01DX009 (ip), vehicle: Klucel (hydroxypropylcellulose) (HPC) 98 % of control | [1] 96 % of control | [2] 111 % of control | [3] 100 % of control | [4] 96 % of control

CCCCCOB(OCCCCC)OCCCCC
inactive: dose: 50.0 mg/kg/injection, schedule: Q01DX001 (ip), vehicle: carboxymethylcellulose (CMC) 93 % of control | dose: 100.0 mg/kg/injection, schedule: Q01DX001 (ip), vehicle: carboxymethylcellulose (CMC) 95 % of control | dose: 200.0 mg/kg/injection, schedule: Q01DX001 (ip), vehicle: carboxymethylcellulose (CMC) 93 % of control | dose: 400.0 mg/kg/injection, schedule: Q01DX001 (ip), vehicle: carboxymethylcellulose (CMC) 98 % of control

O=C1c2cccc(O)c2C(=O)c2c(O)cc(CO)cc21
inactive: [1] 98 % of control | [3] 95 % of control | [4] 95 % of control

C/C(=N\O)c1c[nH]c(=O)[nH]c1=O
inactive: [5] 94 % of control | [6] 103 % of control

C/C(CCC(=O)O)=N/N=C(N)N
inactive: dose: 15.0 mg/kg/injection, schedule: Q01DX Z (ip), vehicle: carboxymethylcellulose (CMC) 100 % of control | dose: 30.0 mg/kg/injection, schedule: Q01DX Z (ip), vehicle: carboxymethylcellulose (CMC) 106 % of control | dose: 60.0 mg/kg/injection, schedule: Q01DX Z (ip), vehicle: carboxymethylcellulose (CMC) 106 % of control | dose: 120.0 mg/kg/injection, schedule: Q01DX Z (ip), vehicle: carboxymethylcellulose (CMC) 95 % of control and 102 % of control | dose: 240.0 mg/kg/injection, schedule: Q01DX Z (ip), vehicle: carboxymethylcellulose (CMC) 108 % of control | dose: 480.0 mg/kg/injection, schedule: Q01DX Z (ip), vehicle: carboxymethylcellulose (CMC) 104 % of control

CCC[CH2][Pb]([CH2]CCC)([CH2]CCC)[CH2]CCC
inactive: dose: 100.0 mg/kg/injection, schedule: Q04DX002 (ip), vehicle: saline with Tween-80 107 % of control | dose: 200.0 mg/kg/injection, schedule: Q04DX002 (ip), vehicle: saline with Tween-80 105 % of control | dose: 400.0 mg/kg/injection, schedule: Q04DX002 (ip), vehicle: saline with Tween-80 102 % of control

CCCCCCCCCCCCCC(CCCCCC)C1CCCCC1 (stereo unspecified)
inactive: dose: 100.0 mg/kg/injection, schedule: Q01DX001 (ip), vehicle: acetone 100 % of control | dose: 200.0 mg/kg/injection, schedule: Q01DX001 (ip), vehicle: acetone 106 % of control | dose: 400.0 mg/kg/injection, schedule: Q01DX001 (ip), vehicle: acetone 101 % of control

CCCCCC(CN(C)C)C(/C=C/c1ccccc1Cl)OC(=O)c1ccc([N+](=O)[O-])cc1 (stereo unspecified)
inactive: [7] 95 % of control | [8] 92 % of control | [9] 92 % of control

O=C(CCCc1ccccc1)N1CCOCC1
inactive: dose: 100.0 mg/kg/injection, schedule: Q01DX009 (ip), vehicle: saline sonified 94 % of control | dose: 200.0 mg/kg/injection, schedule: Q01DX009 (ip), vehicle: saline sonified 96 % of control | dose: 400.0 mg/kg/injection, schedule: Q01DX009 (ip), vehicle: saline sonified 102 % of control

N#CC(CN1CCOCC1)[N+](=O)[O-] (stereo unspecified)
inactive: [7] 98 % of control | [8] 93 % of control | [9] 95 % of control

CC(C)(C)CC(C)(C)c1ccc(OCCOc2ccc(C(=O)O)cc2N)cc1
inactive: [1] 92 % of control | [3] 96 % of control

CC1(C)N=C(N)N=C(N)N1c1ccc(CCCC(=O)Nc2ccc(S(=O)(=O)F)cc2)cc1
inactive: dose: 0.8 mg/kg/injection, schedule: Q01DX009 (ip), vehicle: saline 97 % of control | [10] 98 % of control | dose: 20.0 mg/kg/injection, schedule: Q01DX009 (ip), vehicle: saline 104 % of control | [11] 114 % of control | dose: 500.0 mg/kg/injection, schedule: Q01DX009 (ip), vehicle: saline 123 % of control

CCCC(=O)NC1CC(OC2CC(O)(C(C)=O)Cc3c(O)c4c(c(O)c32)C(=O)c2c(OC)cccc2C4=O)OC(C)C1O (stereo unspecified)
inactive: dose: 0.25 mg/kg/injection, schedule: Q01DX009 (ip), vehicle: saline 91 % of control | dose: 0.5 mg/kg/injection, schedule: Q01DX009 (ip), vehicle: saline 96 % of control | dose: 1.0 mg/kg/injection, schedule: Q01DX009 (ip), vehicle: saline 91 % of control | dose: 2.0 mg/kg/injection, schedule: Q01DX009 (ip), vehicle: saline 93 % of control | [10] 96 % of control

Cc1cc(C)c(NC(=O)NC2CCCCC2)cc1C
inactive: [5] 105 % of control | [6] 94 % of control | dose: 400.0 mg/kg/injection, schedule: Q04DX002 (ip), vehicle: Klucel (hydroxypropylcellulose) (HPC) 94 % of control

c1ccc(COc2ccc3oc4ccccc4c3c2)cc1
inactive: [12] 96 % of control | [2] 94 % of control | [13] 94 % of control | [14] 96 % of control | dose: 400.0 mg/kg/injection, schedule: Q01DX009 (ip), vehicle: Klucel (hydroxypropylcellulose) (HPC) 96 % of control | dose: 400.0 mg/kg/injection, schedule: Q04DX003 (ip), vehicle: Klucel (hydroxypropylcellulose) (HPC) 91 % of control

O=S(=O)(CS(=O)(=O)Nc1ccccc1)Nc1ccccc1
inactive: dose: 25.0 mg/kg/injection, schedule: Q04DX003 (ip), vehicle: saline with Tween-80 113 % of control | dose: 50.0 mg/kg/injection, schedule: Q04DX003 (ip), vehicle: saline with Tween-80 116 % of control | [1] 94 % of control | [7] 111 % of control | [3] 94 % of control | [4] 94 % of control

CCOc1ccc(NC(C)=O)cc1Br
inactive: dose: 100.0 mg/kg/injection, schedule: Q01DX001 (ip), vehicle: other 103 % of control | dose: 200.0 mg/kg/injection, schedule: Q01DX001 (ip), vehicle: other 103 % of control | dose: 400.0 mg/kg/injection, schedule: Q01DX001 (ip), vehicle: other 111 % of control

S=c1[nH]c2nc(Cl)c(Cl)nc2[nH]1
inactive: dose: 50.0 mg/kg/injection, schedule: Q01DX009 (ip), vehicle: saline with Tween-80 95 % of control | dose: 100.0 mg/kg/injection, schedule: Q01DX009 (ip), vehicle: saline with Tween-80 91 % of control | [7] 97 % of control | dose: 200.0 mg/kg/injection, schedule: Q01DX009 (ip), vehicle: saline with Tween-80 100 % of control | [8] 102 % of control

CNC(=S)n1cncn1
inactive: [11] 91 % of control | dose: 200.0 mg/kg/injection, schedule: Q01DX009 (ip), vehicle: saline 108 % of control | dose: 400.0 mg/kg/injection, schedule: Q01DX009 (ip), vehicle: saline 92 % of control

CCc1csc(=S)[nH]1
inactive: dose: 50.0 mg/kg/injection, schedule: Q01DX009 (ip), vehicle: Klucel (hydroxypropylcellulose) (HPC) 98 % of control | [12] 93 % of control | [2] 98 % of control | [13] 96 % of control | [14] 98 % of control
